Experimental data taken from patent US20040248919A1, “Fluorinated trienes and their use as rxr modulators” (priority 2001, published 2004).
Like-named read-outs stand apart in the source and are kept apart here.

Molecular target: T1, RXRα:RXRα homodimer (Homo sapiens, UniProt P19793)
T1 sequence (P19793 1-462): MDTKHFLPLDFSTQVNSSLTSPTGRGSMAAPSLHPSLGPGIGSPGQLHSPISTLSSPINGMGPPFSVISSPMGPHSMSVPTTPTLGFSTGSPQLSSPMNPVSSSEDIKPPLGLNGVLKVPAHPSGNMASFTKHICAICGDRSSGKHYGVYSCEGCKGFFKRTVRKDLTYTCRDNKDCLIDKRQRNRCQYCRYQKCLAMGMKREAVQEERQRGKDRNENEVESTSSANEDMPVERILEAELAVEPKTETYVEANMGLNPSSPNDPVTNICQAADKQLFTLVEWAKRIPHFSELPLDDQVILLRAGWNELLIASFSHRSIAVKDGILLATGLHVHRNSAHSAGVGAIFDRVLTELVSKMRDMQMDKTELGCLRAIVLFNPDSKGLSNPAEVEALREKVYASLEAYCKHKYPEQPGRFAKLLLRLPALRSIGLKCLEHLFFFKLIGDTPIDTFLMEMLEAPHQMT
Assay: RXR homodimer co-transfection assay (antagonist) in CV-1 cells
Assay type: cell-based
Conditions: for IC50: in the presence of 3.2×10^−8 M LGD1069, read-out: RXR Antagonist CTF IC50
Description: In the co-transfection assay, cloned cDNA for one or more IRs (e.g. human RARα, RXRα, or PPARγ), alone or in combination (i.e. for heterodimer assays) under the control of a constitutive promoter (e.g., the SV 40, RSV or CMV promoter) is introduced by transfection (a procedure to introduce exogenous genes into cells) into a background cell substantially devoid of endogenous IRs. These introduced gene(s) direct the recipient cells to make the IR protein(s) of interest. A further gene is also introduced (co-transfected) into the same cells in conjunction with the IR gene(s). This further gene, comprising the cDNA for a reporter protein, such as firefly luciferase (LUC), controlled by an appropriate hormone responsive promoter containing a hormone response element (HRE). This reporter plasmid functions as a reporter for the transcriptional-modulating activity of the target IR(s). Thus, the reporter acts as a surrogate for the products (mRNA then protein) normally expressed by a gene under control of the target receptor(s) and their native hormone(s). The co-transfection assay can detect small molecule agonists or antagonists, including partial agonists and antagonist, of target IRs. Exposing the transfected cells to an agonist ligand compound increases reporter activity in the transfected cells. This activity can be conveniently measured, e.g., by increasing luciferase production and enzymatic activity, which reflects compound-dependent, IR-mediated increases in reporter transcription. […] Increasing concentrations of an antagonist will decrease the reporter signal (e.g., luciferase production). The co-transfection assay is therefore useful to detect both agonists and antagonists of specific IRs. Furthermore, it determines not only whether a compound interacts with a particular IR, but whether this interaction mimics (agonizes) or blocks (antagonizes) the effects of native or synthetic regulatory molecules on target gene expression, as well as the specificity and strength of this interaction. […] To determine agonist and antagonist activity of the modulator compounds of the present invention, the CV-1 cells were transiently transfected by calcium phosphate coprecipitation according to the procedure of Berger et al., 41 J. Steroid Biochem. Mol. Biol., 733 (1992) with the receptor expressing plasmid […] et al., 345 Nature, 224 (1990), the disclosures of which are herein incorporated by reference at a concentration of 10 ng/well. The receptor expression plasmid was cotransfected along with a reporter plasmid at 50 ng/well, the internal control plasmid pRS-β-Gal at 50 ng/well and filler DNA, pGEM, at 90 ng/well. The reporter plasmid […], which contains an RXRE (retinoid X receptor response element, as described in Mangelsdorf et al., 66 Cell, 555 (1991), the disclosure of which is herein incorporated by reference, was used in transfections for the RXR homodimer assay. This reporter plasmid contains the cDNA for firefly luciferase (LUC) under the control of a promoter containing the RXR response element. As noted above, pRS-β-Gal, coding for constitutive expression of E. coli β-galactosidase (β-Gal), was included as an internal control for evaluation of transfection efficiency and compound toxicity. Six hours after transfection, media was removed and the cells were washed with phosphate-buffered saline (PBS). Media containing compounds of the present invention in concentrations ranging from 10^-10 to 10^-5 M were added to the cells. […] Ligand Pharmaceuticals, Inc.), compounds with known agonist activity on RXRs, were added at similar concentrations to provide a reference point for analysis of the agonist activity of the compounds of the present invention. […] Ligand Pharmaceuticals, Inc.). Retinoid purity was established as greater than 99% by reverse phase high-performance liquid chromatography. Retinoids were dissolved in dimethylsulfoxide for use in the transcriptional activation assays. Two to three replicates were used for each sample. […]

[1] = CV-1 cells, antagonist efficacy as % of maximal inhibition, read-out: RXR Antagonist CTF % Efficacy

SMILES | Emax [1] | IC50 (CV-1 cells) | Emax (CV-1, read-out: RXR Antagonist CTF % Efficacy)
CCCCOc1c(\C(C)=C/C=C/C(=C/C(=O)O)C(F)(F)F)cc(C(C)C)cc1C(C)C [Example 3, (2Z,4E,6Z)-7-(2-Butoxy-3,5-diisopropylphenyl)-3-trifluoromethyl-octa-2,4,6-trienoic acid] | 83% | 921 nM | 
C/C(=C/C=C(F)/C(C)=C/C(=O)O)c1cc(C(C)(C)C)cc(C(C)(C)C)c1OCC(F)F [Example 1, 7-[3,5-di-tert-butyl-2-(2,2-difluoroethoxy)-phenyl]4-fluoro-3-methyl-octa-2,4,6-trienoic acid] | 100% | 4840 nM | 
CCOc1c(\C(=C/C=C/C(C)=C/C(=O)O)C(F)(F)F)cc(C(C)(C)C)cc1C(C)(C)C [Example 5, (2E,4E,6E)-3-methyl-7-(2-ethoxy-3,5-di-tert-butylphenyl)-8,8,8-trifluoroocta-2,4,6-trienoic acid] |  | 38 nM | 30%
C/C(=C/C(F)=C/C(C)=C/C(=O)O)c1cc(C(C)(C)C)cc(C(C)(C)C)c1OCC(F)F [Example 2, 7-[3,5-Di-tert-butyl-2-(2,2-difluoroethoxy)-phenyl]-5-fluoro-3-methyl-octa-2,4,6-trienoic acid] | 100% | 8710 nM | 
CCCCOc1c(\C(C)=C/C=C/C(=C\C(=O)O)C(F)(F)F)cc(C(C)C)cc1C(C)C [Example 4, (2E,4E,6Z)-7-(2-Butoxy-3,5-diisopropylphenyl)-3-trifluoromethyl-octa-2,4,6-trienoic acid] | 29% |  | 
